Laboratory results: patent publication US20250213703A1, “HUMAN INTERLEUKIN 2-POLYETHYLENE GLYCOL CONJUGATE AND USE THEREOF” (Novocodex Biopharmaceuticals Co., Ltd., priority 2021, published 2025)

Legend:
YT cells = assay: STAT5 phosphorylation assay (YT cells); type: cell-based, human; settings: [EC50 YT/EC50 CTLL-2 of sample]/[EC50 YT/EC50 CTLL-2 of reference] × 100%
Excerpt: In this method, two cell lines were adopted, wherein mouse CTLL-2 cells were a cell line containing IL-2Rαβγ, and human YT cells were a cell line containing IL-2Rβγ, and rhIL-2 activated the JAK-STAT signal pathway by binding with IL-2R on the cell surface. […] The lower the percentage change of EC50 ratio of YT cells/CTLL-2 cells was, the better the effect of promoting the immune function of the samples was, and on the contrary, the better the effect of inhibiting the immune function was.
The specific process was as follows: the mouse CTLL-2 cells (purchased from American Type Culture Collection) and the human YT cells were cultured in their own media (CTLL-2 cell medium: RPMI 1640+10% FBS+400 IU/mL rhIL-2, 2 mM L-glutamine and 1 mM sodium pyruvate; and YT cell medium: RPMI 1640+10% FBS+1 mm Non-Essential Amino Acids Solution (purchased from Gibco, product catalog number 11140050)) to a sufficient amount at condition of 37° C. and 5% carbon dioxide, and starved for 4 hours before detection, and then the cell density was adjusted to be 1×10^6 cells/mL for later use.

[1] = tested on: mouse colon cancer CT26.WT; assay: Anti-tumor activity, CT26.WT homograft tumor model; type: in vivo; settings: Balb/c mice
Experimental: (§1) A cell suspension of 2×10^5/0.1 mL/mouse CT26.WT (purchased from […], product catalog number CRL-2638) and a cell suspension of 4×10^5/0.1 mL/mouse H22 (purchased from CCTCC, product catalog number GD00091) were subcutaneously inoculated into right backs of the mice. […] During the experiment, weights and tumor volumes of the animals were measured 3 times every week, and administration modes and experimental results were shown in Table 4.

mouse liver cancer H22 = assay: Anti-tumor activity, H22 homograft tumor model; type: in vivo; settings: Balb/c mice
Experimental: as §1

[2] = tested on: CD8^+ T cells and CD4^+ Treg cells; assay: Immune cell population in CT26.WT tumor tissue (flow cytometry); type: in vivo, mouse; settings: for CD8^+ T cells/CD4^+ Treg / Percentage of CD4^+ Treg in leucocytes / Percentage of CD8^+ T cells in leucocytes: 5th day, 2.0 mg/kg IV single dosage; for proportions of CD4^+ Treg cells compared with Quanqi rhIL2 / proportions of CD8^+ T cells compared with Quanqi rhIL2 / proportions of CD8^+ T/CD4^+ Treg compared with Quanqi rhIL2: in words
Experimental: A cell suspension of 2×10^5/0.1 mL/mouse CT26.WT was subcutaneously inoculated into right backs of the mice. […] On the 5th day, tumor tissue samples of various groups were collected for flow cytometry detection of changes in cell populations of CD8^+ T cells and CD4^+ Treg cells.

[3] = mouse, in vivo, iv, 1 mg/kg
Experimental: The blood sample was placed at room temperature for 15 minutes and centrifuged at 6,800 g/min for 6 minutes to obtain serum. The plasma concentration in the serum was analyzed by the following method:
(1) Coating: 50 μL of 1 μg/mL working solution of Anti-IL-2 antibody (purchased from abcam, product catalog number: ab9618) was added into each well in a high-adsorption 96-well plate, and incubated at 2° C. to 8° C. overnight. (2) Washing: the liquid in the well was discarded, and the well was washed with 1 xPBST (0.05% Tween-20) for 3 times, according to 300 μL/well. (3) Sealing: a casein sealing solution (purchased from Thermo, product catalog number 37528) was added according to 200 μL/well, and allowed to stand at room temperature for 90 minutes. (4) Washing: the liquid in the well was discarded, and the well was washed with 1 xPBST for 3 times, according to 300 μL/well. […] (6) Washing: the liquid in the well was discarded, and the well was washed with 1×PBST for 3 times, according to 300 μL/well. (7) Primary antibody: 50 μL of 0.25 μg/mL working solution of IL-2 Monoclonal Antibody (BG5) and Biotin (purchased from Invitrogen, product catalog number M600B) was added into each well, and allowed to stand at room temperature for 60 minutes. (8) Washing: the liquid in the well was discarded, and the well was washed with 1×PBST for 3 times, according to 300 μL/well. (9) Secondary antibody: Pierce™ High Sensitivity Streptavidin-HRP (purchased from Thermo, product catalog number 21130) was diluted for 4,000 times with a casein sealing solution, and 50 μL was added into each well, and allowed to stand at room temperature for 60 minutes. (10) Washing: the liquid in the well was discarded, and the well was washed with 1×PBST for 4 times, according to 300 μL/well. […] (12) Stopping and reading: 2 M sulfuric acid stop solution was added 25 minutes later, and light absorption values at 450 nm and 650 nm were read on a microplate reader (purchased from Perkin Elmer, model EnSight).

IL-2Rαβγ = target: T1, IL-2Rαβγ (Homo sapiens, UniProt P01589+P14784+P31785); settings: high-affinity complex IL-2Rαβγ; cited from earlier work
T1 sequence (P01589 22-272): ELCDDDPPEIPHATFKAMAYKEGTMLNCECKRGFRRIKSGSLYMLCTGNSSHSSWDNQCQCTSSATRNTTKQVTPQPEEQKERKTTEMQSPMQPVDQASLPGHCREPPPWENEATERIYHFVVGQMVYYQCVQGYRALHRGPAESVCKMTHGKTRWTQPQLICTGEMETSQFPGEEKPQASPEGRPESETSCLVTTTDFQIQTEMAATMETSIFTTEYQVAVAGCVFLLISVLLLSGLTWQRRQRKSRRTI
T1 sequence (P14784 27-551): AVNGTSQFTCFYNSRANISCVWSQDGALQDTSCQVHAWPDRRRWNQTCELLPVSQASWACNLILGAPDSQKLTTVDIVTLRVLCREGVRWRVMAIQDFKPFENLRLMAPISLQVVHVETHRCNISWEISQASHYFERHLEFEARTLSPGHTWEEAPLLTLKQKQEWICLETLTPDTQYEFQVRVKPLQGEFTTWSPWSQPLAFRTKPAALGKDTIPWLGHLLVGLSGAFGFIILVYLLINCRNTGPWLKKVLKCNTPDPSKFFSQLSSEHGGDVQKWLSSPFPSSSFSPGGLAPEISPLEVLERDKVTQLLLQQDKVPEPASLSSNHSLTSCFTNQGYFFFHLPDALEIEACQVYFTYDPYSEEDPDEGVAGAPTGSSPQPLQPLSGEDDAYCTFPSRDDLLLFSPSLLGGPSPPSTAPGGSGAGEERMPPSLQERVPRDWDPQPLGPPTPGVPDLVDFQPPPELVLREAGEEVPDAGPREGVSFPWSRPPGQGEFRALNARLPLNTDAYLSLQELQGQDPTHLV
T1 sequence (P31785 23-369): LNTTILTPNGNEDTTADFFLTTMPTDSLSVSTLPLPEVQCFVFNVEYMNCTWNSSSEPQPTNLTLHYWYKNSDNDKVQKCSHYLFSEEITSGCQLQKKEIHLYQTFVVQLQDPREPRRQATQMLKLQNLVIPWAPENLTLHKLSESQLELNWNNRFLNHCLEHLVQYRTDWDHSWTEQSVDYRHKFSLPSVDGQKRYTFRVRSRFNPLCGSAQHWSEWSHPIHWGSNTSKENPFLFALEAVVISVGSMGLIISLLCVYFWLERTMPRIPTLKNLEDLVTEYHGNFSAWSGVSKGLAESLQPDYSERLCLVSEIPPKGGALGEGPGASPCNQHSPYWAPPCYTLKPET

IL-2Rβγ = target: T2, IL-2Rβγ (Homo sapiens, UniProt P14784+P31785); settings: moderate-affinity complex IL-2Rβγ; cited from earlier work
T2 sequence (P14784 27-551): T1 sequence (P14784 27-551)
T2 sequence (P31785 23-369): T1 sequence (P31785 23-369)

IL-2Rα = target: T3, IL-2Rα (Homo sapiens, UniProt P01589); settings: low-affinity receptor IL-2Rα subunit; cited from earlier work
T3 sequence (P01589 22-272): T1 sequence (P01589 22-272)

[4] = target: IL-2Rαβγ on mouse CTLL-2 cells (mouse (CTLL-2 cells)) (UniProt P01590); assay: cell-based or functional assay
[5] = high dosage 5.0 mg/kg IV Q5D × 3
[6] = low dosage 0.7 mg/kg IV Q5D × 3

IL-2Rαβγ on mouse CTLL-2 cells (mouse (CTLL-2 cells)), sequence (P01590 22-268, chain 1 of 3): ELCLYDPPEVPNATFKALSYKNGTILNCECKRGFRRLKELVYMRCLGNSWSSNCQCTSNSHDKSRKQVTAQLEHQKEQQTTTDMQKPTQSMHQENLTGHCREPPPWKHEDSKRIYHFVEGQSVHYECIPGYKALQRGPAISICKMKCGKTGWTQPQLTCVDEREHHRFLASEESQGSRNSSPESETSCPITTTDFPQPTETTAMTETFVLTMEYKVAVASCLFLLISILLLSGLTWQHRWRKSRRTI
IL-2Rαβγ on mouse CTLL-2 cells (mouse (CTLL-2 cells)), sequence (P16297 27-539, chain 2 of 3, further chain): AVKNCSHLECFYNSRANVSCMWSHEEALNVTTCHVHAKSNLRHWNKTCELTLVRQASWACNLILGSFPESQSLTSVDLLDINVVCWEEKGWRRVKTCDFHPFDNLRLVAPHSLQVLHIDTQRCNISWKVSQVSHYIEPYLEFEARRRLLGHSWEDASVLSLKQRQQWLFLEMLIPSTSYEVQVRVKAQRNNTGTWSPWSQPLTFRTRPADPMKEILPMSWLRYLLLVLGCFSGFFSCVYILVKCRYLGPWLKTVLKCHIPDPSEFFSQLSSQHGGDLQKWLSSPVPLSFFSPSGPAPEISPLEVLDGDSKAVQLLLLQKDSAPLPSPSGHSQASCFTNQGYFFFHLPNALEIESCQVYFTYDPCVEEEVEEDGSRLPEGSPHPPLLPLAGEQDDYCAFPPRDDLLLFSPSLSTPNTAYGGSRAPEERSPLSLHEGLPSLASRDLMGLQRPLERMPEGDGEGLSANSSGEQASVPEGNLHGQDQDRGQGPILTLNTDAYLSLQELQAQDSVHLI
IL-2Rαβγ on mouse CTLL-2 cells (mouse (CTLL-2 cells)), sequence (P34902 23-369, chain 3 of 3, further chain): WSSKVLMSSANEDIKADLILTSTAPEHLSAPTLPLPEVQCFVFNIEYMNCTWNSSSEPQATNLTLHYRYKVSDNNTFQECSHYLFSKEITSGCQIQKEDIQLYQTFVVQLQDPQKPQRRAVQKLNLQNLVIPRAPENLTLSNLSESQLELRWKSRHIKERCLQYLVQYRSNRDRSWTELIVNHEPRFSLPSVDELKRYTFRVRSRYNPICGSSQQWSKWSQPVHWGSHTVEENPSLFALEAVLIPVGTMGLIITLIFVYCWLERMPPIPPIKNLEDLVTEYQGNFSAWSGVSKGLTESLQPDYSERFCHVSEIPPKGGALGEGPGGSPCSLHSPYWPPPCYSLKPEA

In the case of “30 KD PEG-rhIL2-E61: rhIL-2 with unnatural amino acid NOPK at E61 site, coupled via oxime bond with 30 KD aminoxy PEG”, the “Percentage change of EC50 ratio of YT/CTLL-2 cells of 30 KD PEG-rhIL2 sample” value (YT cells) is reported as 89%.

For “30 KD PEG-rhIL2-K35: rhIL-2 with unnatural amino acid NOPK at K35 site, coupled via oxime bond with 30 KD aminoxy PEG”, the “Percentage change of EC50 ratio of YT/CTLL-2 cells of 30 KD PEG-rhIL2 sample” value (YT cells) was 53%.

With “30 KD PEG-rhIL2-P65: rhIL-2 with unnatural amino acid NOPK at P65 site, coupled via oxime bond with 30 KD aminoxy PEG” the “Percentage change of EC50 ratio of YT/CTLL-2 cells of 30 KD PEG-rhIL2 sample” value (YT cells) was 91%.

With “30 KD PEG-rhIL2-T41: rhIL-2 with unnatural amino acid NOPK at T41 site, coupled via oxime bond with 30 KD aminoxy PEG” the “Percentage change of EC50 ratio of YT/CTLL-2 cells of 30 KD PEG-rhIL2 sample” value (YT cells) was 43%, the “Average value ± standard error of tumor weight” value (shortened to “Average value ± standard error”) [1, 5] was 0.32 g and the TGITW [1, 5] was 88%. For the same substance, the “Average value ± standard error” value [1, 6] was 0.64 g, the TGITW [1, 6] was 77% and the “Average value ± standard error” value (mouse liver cancer H22; [5]) was 0.38 g. For the same substance, the TGITW (mouse liver cancer H22; [5]) was 80%, the “Average value ± standard error” value (mouse liver cancer H22; [6]) was 0.69 g and the TGITW (mouse liver cancer H22; [6]) was 63%. The “CD8^+ T cells/CD4^+ Treg” value [2] was 27.7, the “Percentage of CD4^+ Treg in leucocytes” value [2] was 1.3% and the “Percentage of CD8^+ T cells in leucocytes” value [2] was 36.0%. The “proportions of CD4^+ Treg cells compared with Quanqi rhIL2” value [2] was “significantly decreased”, the “proportions of CD8^+ T cells compared with Quanqi rhIL2” value [2] was “significantly increased” and the “proportions of CD8^+ T/CD4^+ Treg compared with Quanqi rhIL2” value [2] was “significantly increased”.

In the case of “30 KD PEG-rhIL2-Y45: rhIL-2 with unnatural amino acid NOPK at Y45 site, coupled via oxime bond with 30 KD aminoxy PEG”, the “Percentage change of EC50 ratio of YT/CTLL-2 cells of 30 KD PEG-rhIL2 sample” value (YT cells) is reported as 6%, the “Average value ± standard error” value [1, 5] is reported as 0.22 g and the TGITW [1, 5] is reported as 92%. For the same substance, the “Average value ± standard error” value [1, 6] was 0.93 g, the TGITW [1, 6] was 66% and the “Average value ± standard error” value (mouse liver cancer H22; [5]) was 0.4 g. The TGITW (mouse liver cancer H22; [5]) was 79%, the “Average value ± standard error” value (mouse liver cancer H22; [6]) was 0.82 g and the TGITW (mouse liver cancer H22; [6]) was 57%. For the same substance, the “CD8^+ T cells/CD4^+ Treg” value [2] was 23.2, the “Percentage of CD4^+ Treg in leucocytes” value [2] was 1.3% and the “Percentage of CD8^+ T cells in leucocytes” value [2] was 30.1%. For the same substance, the “proportions of CD4^+ Treg cells compared with Quanqi rhIL2” value [2] was “significantly decreased”, the “proportions of CD8^+ T cells compared with Quanqi rhIL2” value [2] was “significantly increased” and the “proportions of CD8^+ T/CD4^+ Treg compared with Quanqi rhIL2” value [2] was “significantly increased”. It also gave an AUC0-t [3] of 168.141 µg·h/mL, an MRT0-t [3] of 9.42 h and a Vz [3] of 0.126 L/kg.

For “IL-2: mature human IL-2 with 133 amino acids, background description”, the Kd (IL-2Rαβγ) is listed as 0.01 nM, the Kd (IL-2Rβγ) is listed as 1 nM and the Kd (IL-2Rα) is listed as 10 nM.

For “reference rhIL-2 (purchased from Beijing Solarbio Science & Technology Co., Ltd., catalog number: P00020) (from UniProt P60568 21-153) (ligand)”, the STAT5 phosphorylation assay (CTLL-2 cells) EC50 [4] was 0.12 ng/mL.
